Calls of active or inactive are those of the source. The calls are words filed in the database; no cut-off is given here.
Columns and labels:
Mitochondrial membrane [1] = assay: Induction of mitochondrial membrane depolarization in human HCC827 cells assessed as increase green fluorescence incubated for 4 hrs by JC-1 staining based confocal microscopy analysis; assay type: cell membranes; details: dose 0.125-0.5 µM
HCC827 [2] = assay: Effect on UQCRC2 expression in human HCC827 cells at 0.25 to 0.5 uM incubated for 24 hrs by Western blot analysis; assay type: functional, cell-based; details: dose 0.25-0.5 µM
Mitochondrial membrane [3] = assay: Induction of mitochondrial membrane depolarization in human BEAS-2B cells assessed as JC-1 monomer ratio by measuring increase green fluorescence at 0.25 uM incubated for 4 hrs by JC-1 staining based confocal microscopy analysis; assay type: cell membranes
HCT-116 = assay: Antiproliferative activity against human HCT-116 cells assessed as inhibition of cell growth measured after 72 hrs by MTT assay; assay type: functional, cell-based; details: HCT-116, 72 h
HCC827 [4] = assay: Antimetastatic activity against human HCC827 cells xenografted in female nude mouse model assessed as decrease in vimentin level at 5 to 10 mg/kg, ip by Western blot analysis; assay type: functional, organism-based; details: dose 5-10 mg/kg
HeLa = assay: Induction of mitophagy in human HeLa cells harbouring mCherry-GFP tag assessed as reduction in GFP fluorescence at 0.5 uM incubated for 24 hrs by confocal microscopy analysis; assay type: functional, cell-based
[5] = Toxicity in female Kunming mouse assessed as change in body weight at 50 mg/kg, ip measured every two days for 7 days; assay type: organism-based; details: in vivo, 168 h, time 7 day
BEAS-2B = assay: Inhibition of colony formation in human BEAS-2B cells at 0.05 to 0.1 uM incubated for 72 hrs by crystal violet staining based analysis; assay type: functional, cell-based; details: dose 0.05-0.1 µM
HCC827 [6] = assay: Induction of mitochondrial dysfunction in human HCC827 cells assessed as suppression of basal respiration incubated for 4 hrs by Seahorse XF96 extracellular flux analyzer; assay type: functional, cell-based; details: dose 0.125-5 µM
HCC827 [7] = assay: Induction of apoptosis in human HCC827 cells assessed as viable cells at 0.5 uM measured after 48 hrs by annexin V and PI staining based flow cytometry analysis (reference value: 96.74%); assay type: functional; details: read-out: Activity
[8] = Toxicity in female nude mouse assessed as effect om weight loss at 5 to 10 mg/kg, ip measured after 14 days; assay type: organism-based; details: in vivo, 336 h, dose 5-10 mg/kg, time 14 day
[9] = Toxicity in female BALB/c mouse assessed as effect on body weight at 30 mg/kg, ip measured for 7 days; assay type: organism-based; details: in vivo, 168 h, time 7 day
HCC827 [10] = assay: Induction of apoptosis in human HCC827 cells assessed as late apoptotic cells at 0.5 uM measured after 48 hrs by annexin V and PI staining based flow cytometry analysis (reference value: 1.29%; assay type: functional
HCC827 [11] = assay: Downregulation of […] protein level in human HCC827 cells at 0.25 to 0.5 uM measured after 12 hrs; assay type: functional, cell-based; details: dose 0.25-0.5 µM
HCC827 [12] = assay: Antiproliferative activity against human HCC827 cells assessed as cell viability preincubated with FMK followed by compound addition and measured after 48 hrs by MTT assay; assay type: functional, cell-based
HCC827 [13] = assay: Downregulation of TIMM23 expression level in human HCC827 cells at 0.5 uM by Western blot analysis; assay type: functional, cell-based; details: time 3-24 hrs
HCC827 [14] = assay: Induction of ROS generation in human HCC827 cells assessed as increase in NAD+/NADH ratio at 1 uM incubated for 4 hrs by absorbance based analysis; assay type: functional, cell-based
[15] = Toxicity in female BALB/c mouse assessed as histopathological changes in kidney at 30 mg/kg, ip measured for 7 days by H and E staining based analysis; assay type: organism-based; details: in vivo, 168 h, time 7 day
[16] = Toxicity in female BALB/c mouse assessed as animal death at 30 mg/kg, ip measured for 7 days; assay type: organism-based; details: in vivo, 168 h, time 7 day
[17] = Toxicity in female BALB/c mouse assessed as histopathological changes in lung at 30 mg/kg, ip measured for 7 days by H and E staining based analysis; assay type: organism-based; details: in vivo, 168 h, time 7 day
HCC827 [18] = assay: Downregulation of SDHB expression in human HCC827 cells at 0.25 uM by Western blot analysis; assay type: functional, cell-based; details: time <= 24.0 hrs
HCC827 [19] = assay: Induction of cell cycle arrest in human HCC827 cells assessed as accumulation of cells at S phase at 0.2 uM incubated for 24 hrs by PI staining based flow cytometry analysis (reference value: 26.41%); assay type: functional
HCC827 [20] = assay: Induction of cell cycle arrest in human HCC827 cells assessed as accumulation of cells at G2 phase at 0.2 uM incubated for 24 hrs by PI staining based flow cytometry analysis (reference value: 7.15%); assay type: functional

In the case of `Cc1ccc([P+](CCCCCCCCCCO)(c2ccc(C)cc2)c2ccc(C)cc2)cc1.[Br-]`, the Activity (Mitochondrial membrane [1]) is reported as “Dose-dependent-effect”, the Activity (HCC827 [2]) is reported as “Active” and the Activity (Mitochondrial membrane [3]) is reported as “inactive”. For the same compound, the IC50 (HCT-116) was 620 nM, the Activity (HCC827 [4]) was “Active” and the Activity (HeLa) was “Active”. The Activity [5] was “Toxic”, the inhibition (BEAS-2B) was “Minimal_effect” and the Activity (HCC827 [6]) was “Dose-dependent-effect”. For the same compound, the viability at 0.5 µM (HCC827 [7]) was 88.5%, the Activity [8] was “Non-toxic” and the Activity [9] was “Non-toxic”. For the same compound, the Activity (HCC827 [10]) was 7.12%, the Activity (HCC827 [11]) was “Active” and the IC50 (HCC827 [12]) was 110 nM. For the same compound, the Activity (HCC827 [13]) was “Time-dependent-effect”, the Activity (HCC827 [14]) was “Active” and the Activity [15] was “Non-toxic”. The Activity [16] was “Non-toxic”, the Activity [17] was “Non-toxic” and the Activity (HCC827 [18]) was “Time-dependent-effect”. The Activity (HCC827 [19]) was 19.35% and the Activity (HCC827 [20]) was 3.91%.

Source: ChEMBL document CHEMBL6182916, “Unexpected Discovery of a Novel Triphenylphosphonium Alkylalcohol That Triggers Cancer Cell Death via Mitophagy and Ferroptosis” (J Med Chem, 2025)
